Laboratory results from paper PMC6333442, “Conserved allosteric pathways for activation of TRPV3 revealed through engineering vanilloid-sensitivity” (eLife, 2019).
Changes are numbered by the printed parent chain. Several values for one entry are separate records, joined by “and”; a condition that tells them apart may be missing. Identical values can stand only once.

What was measured:
[1] = target: T1, mouse TRPV3-4M (F522S/L557M/A560T/Q580E) (Mus musculus, UniProt Q8K424, A560T/F522S/L557M/Q580E); assay: Two-electrode voltage clamp, TRPV3-4M in oocytes; format: cell-based; conditions: RTx 100 nM, 2-APB 3 mM, room temperature, ±60 mV
T1 construct: expressed in transfected cells; host or cells: Xenopus laevis oocytes
T1 sequence (Q8K424 1-791 F522S/L557M/A560T/Q580E): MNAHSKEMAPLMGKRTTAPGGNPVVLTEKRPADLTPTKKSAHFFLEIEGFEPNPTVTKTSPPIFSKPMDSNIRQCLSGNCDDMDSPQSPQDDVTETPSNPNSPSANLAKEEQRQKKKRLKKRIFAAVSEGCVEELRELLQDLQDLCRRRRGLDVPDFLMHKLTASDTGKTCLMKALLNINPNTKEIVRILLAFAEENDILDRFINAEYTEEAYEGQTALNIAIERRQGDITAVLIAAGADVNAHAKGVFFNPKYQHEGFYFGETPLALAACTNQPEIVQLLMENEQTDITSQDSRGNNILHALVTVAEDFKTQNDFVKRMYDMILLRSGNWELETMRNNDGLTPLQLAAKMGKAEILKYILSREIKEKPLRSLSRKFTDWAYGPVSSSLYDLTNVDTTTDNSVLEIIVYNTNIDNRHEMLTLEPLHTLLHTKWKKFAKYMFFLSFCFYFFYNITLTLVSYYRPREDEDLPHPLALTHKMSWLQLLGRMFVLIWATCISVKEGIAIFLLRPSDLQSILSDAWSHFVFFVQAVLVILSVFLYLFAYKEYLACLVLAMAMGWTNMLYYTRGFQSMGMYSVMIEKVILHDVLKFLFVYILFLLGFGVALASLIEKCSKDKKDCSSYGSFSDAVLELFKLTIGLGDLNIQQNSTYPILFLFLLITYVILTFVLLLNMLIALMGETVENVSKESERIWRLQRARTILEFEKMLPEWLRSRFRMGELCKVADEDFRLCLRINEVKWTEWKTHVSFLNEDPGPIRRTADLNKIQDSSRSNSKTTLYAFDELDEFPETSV
Description: (§1) All channel constructs were expressed in Xenopus laevis oocytes and studied using the two-electrode voltage clamp technique (TEVC) following 1–4 days of incubation after cRNA injection. The animal care and experimental procedures were performed in accordance with the Guide for the Care and Use of Laboratory Animals and were approved by the Animal Care and Use Committee of the National Institute of Neurological Disorders and Stroke (Animal protocol number 1253–17). Oocytes were removed surgically and incubated with agitation for 1 hr in a solution containing (in mM) 82.5 NaCl, 2.5 KCl, 1 MgCl2, 5 HEPES, pH 7.6 (with NaOH), and collagenase (2 mg/ml; Worthington Biochemical, Lakewood, NJ). Defolliculated oocytes were injected with cRNA for each of the constructs and incubated at 17°C in a solution containing (in mM) 96 NaCl, 2 KCl, 1 MgCl2, 1.8 CaCl2, 5 HEPES, pH 7.6 (with NaOH), and gentamicin (50 μg/ml, GIBCO-BRL, Gaithersburg, MD). Oocyte membrane voltage was controlled using an OC-725C oocyte clamp (Warner Instruments, Hamden, CT). Data were filtered at 1–3 kHz and digitized at 20 kHz using pClamp software (Molecular Devices, Sunnyvale, CA) and a Digidata 1440A digitizer (Axon Instruments). Microelectrode resistances were 0.1–1 MΩ when filled with 3 M KCl. For recording TRP channel currents, the external recording solution contained (in mM) 100 KCl, 10 HEPES, pH 7.6 (with KOH). […]

[2] = test system: TRPV3-6M + L596V, L599F, S613K, D618P, S620E, I644F, Q646E, P651K, L653V, I659L or T660A; assay: Two-electrode voltage clamp, TRPV3-6M with individual pore mutations (no RTx response); format: cell-based, mouse; conditions: RTx 100 nM, 2-APB 3 mM, room temperature
Description: as §1

TRPV1 = test system: TRPV1; set-up: method as in Zhang et al., 2016; conditions: ref Zhang et al., 2016; cited from earlier work
[3] = test system: TRPV3-6M + V587L, A606V, F625L, F656I or F666Y; assay: Two-electrode voltage clamp, TRPV3-6M with individual pore mutations (strong RTx responders); format: cell-based, mouse; conditions: RTx 100 nM, room temperature; magnitude very similar to 2-APB 3 mM
Description: as §1

TRPV3-5PM = target: T2, TRPV3-5PM (Mus musculus, UniProt Q8K424, A606V/F625L/F656I/F666Y/V587L); format: cell-based
T2 construct: expressed in transfected cells; host or cells: Xenopus laevis oocytes
T2 sequence (Q8K424 1-791 V587L/A606V/F625L/F656I/F666Y): T1 sequence (Q8K424 1-791 F522S/L557M/A560T/Q580E) with S522F, M557L, T560A, E580Q, V587L, A606V, F625L, F656I, F666Y
Description: All channel constructs were expressed in Xenopus laevis oocytes and studied using the two-electrode voltage clamp technique (TEVC) following 1–4 days of incubation after cRNA injection. The animal care and experimental procedures were performed in accordance with the Guide for the Care and Use of Laboratory Animals and were approved by the Animal Care and Use Committee of the National Institute of Neurological Disorders and Stroke (Animal protocol number 1253–17). Oocytes were removed surgically and incubated with agitation for 1 hr in a solution containing (in mM) 82.5 NaCl, 2.5 KCl, 1 MgCl2, 5 HEPES, pH 7.6 (with NaOH), and collagenase (2 mg/ml; Worthington Biochemical, Lakewood, NJ). Defolliculated oocytes were injected with cRNA for each of the constructs and incubated at 17°C in a solution containing (in mM) 96 NaCl, 2 KCl, 1 MgCl2, 1.8 CaCl2, 5 HEPES, pH 7.6 (with NaOH), and gentamicin (50 μg/ml, GIBCO-BRL, Gaithersburg, MD). Oocyte membrane voltage was controlled using an OC-725C oocyte clamp (Warner Instruments, Hamden, CT). Data were filtered at 1–3 kHz and digitized at 20 kHz using pClamp software (Molecular Devices, Sunnyvale, CA) and a Digidata 1440A digitizer (Axon Instruments). Microelectrode resistances were 0.1–1 MΩ when filled with 3 M KCl. For recording TRP channel currents, the external recording solution contained (in mM) 100 KCl, 10 HEPES, pH 7.6 (with KOH). Experiments were performed at room temperature (~22°C), except as indicated otherwise. […] Current time courses were obtained by stepping membrane voltage every 2 s from a holding potential of 0 mV to either −60 or +60 mV for 100 ms, and plotting the mean steady-state current at the end of each voltage step as a function of total recording time. I-V relations were obtained similarly, but voltage was stepped every 2 s to a different value, in 10 mV increments and starting at −60 mV.

TRPV3-4M/V2P = assay: Two-electrode voltage clamp, TRPV3-4M/V2P chimera in oocytes; format: cell-based, mouse; conditions: RTx 100 nM, 2-APB 3 mM, room temperature, ±60 mV
Description: as §1

Compound	channel activation (current response) [1]	channel activation (current response) [2]	saturating concentration of RTx (TRPV1)	channel activation (current response) [3]	increase in the apparent affinity for 2-APB (TRPV3-5PM)	s (slope) of Hill fit, 2-APB concentration-response (TRPV3-5PM)	EC50 (TRPV3-5PM; read-out: apparent affinity (EC50) for activation by 2-APB)	channel activation (current response) (TRPV3-4M/V2P)
C=C(C)[C@]12C[C@@H](C)[C@@]34O[C@](Cc5ccccc5)(O[C@@H]1[C@@H]3C=C(COC(=O)Cc1ccc(O)c(OC)c1)C[C@]1(O)C(=O)C(C)=C[C@@H]41)O2 [RTx, resiniferatoxin]	not by 100 nM RTx	RTx-insensitive	100 nM	robust RTx-activated currents				
NCCOB(c1ccccc1)c1ccccc1 [2-APB, 2-aminoethoxydiphenyl borate]	activated	still activated			20 fold and > 20 fold and ~ 20 fold	1.32	19 ± 2 µM	could be activated
